In patent publication US9598433B2, “Hepatitis C virus inhibitors” (BRISTOL-MYERS SQUIBB COMPANY, priority 2012, dated 2017):
Read-outs that look alike come from different tables or passages of the source.

Columns and labels:
[1] = tested on: HCV genotype 1b (Con1) replicon in HUH-7 cells; assay: HCV replicon luciferase reporter assay, genotype 1b; format: cell-based; details: Hepatitis C virus, 72 h, genotype 1b replicon, 3 days incubation
Method in brief: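 Replication was read as Renilla luciferase signal, using 7.5 μM EnduRen substrate with a 2-h incubation at 37 °C. The signal came from a HUH-7 line constitutively expressing a luciferase-tagged 1b (Con1) replicon carrying S1179I.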

[2] = tested on: HCV genotype 1a (H77 strain) replicon in HUH-7 cells; assay: HCV replicon luciferase reporter assay, genotype 1a; format: cell-based; details: Hepatitis C virus, 72 h, genotype 1a replicon, 3 days incubation
Method in brief: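 Stable HUH-7 line carrying luciferase-reporter genotype 1a (H77) replicon with adaptive NS3 P1496L and NS5A S2204I mutations; 3.0×10^3 cells/well in 4% FCS, 0.5% DMSO, twenty-point 3-fold titration, 3 days at 37 °C. Renilla luminescence with 7.5 μM EnduRen; EC50 by four-parameter logistic fit; CC50 by multiplexed Cell Titer-Blue.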

| SMILES | EC50 ([1]; read-out: LE_1b (EC50, range)) [nM] | EC50 ([2]; read-out: LE_1a (EC50, range)) [nM] | EC50 ([1]; read-out: LE_1b (EC50)) [nM] | EC50 ([2]; read-out: LE_1a (EC50)) [nM] |
| --- | --- | --- | --- | --- |
| COc1cc(F)cc2c(O[C@@H]3C[C@H]4C(=O)N[C@]5(C(=O)NS(=O)(=O)C6(C)CC6)C[C@H]5/C=C\CC[C@@H](C)O[C@@H](C)[C@H](NC(=O)OC(C)(C)C(C)(F)F)C(=O)N4C3)nccc12 [Compound 2018, 3,3-difluoro-2-methylbutan-2-yl ((2R,6S,7S,9R,13aS,14aR,16aS,Z)-2-((7-fluoro-5-methoxyisoquinolin-1-yl)oxy)-7,9-dimethyl-14a-(((1-methylcyclopropyl)sulfonyl)carbamoyl)-5,16-dioxo-2,3,5,6,7,9,10,11,13a,14,14a,15,16,16a-tetradecahydro-1H-cyclopropa[i]pyrrolo[1,2-e][1,5,8]oxadiazacyclopentadecin-6-yl)carbamate] | 0.1 to 0.5 | 0.51 to 1 | – | – |
| CC[C@@H]1OCCC/C=C\[C@@H]2C[C@@]2(C(=O)NS(=O)(=O)C2(C)CC2)NC(=O)[C@@H]2C[C@@H](Oc3nccc4cc(OC)ccc34)CN2C(=O)[C@H]1NC(=O)OC(C)(C)C(F)(F)F [Compound 1005] | 0.51 to 1 | 1.01 to 5 | – | – |
| CC[C@@H]1O[C@H](C)CC/C=C\[C@@H]2C[C@@]2(C(=O)NS(=O)(=O)C2(C)CC2)NC(=O)[C@@H]2C[C@@H](Oc3nc4c(c5ccccc35)CCCO4)CN2C(=O)[C@H]1NC(=O)OC(C)(C)C(F)(F)F [Compound 2302, 1,1,1-trifluoro-2-methylpropan-2-yl ((2R,6S,7S,9R,13aS,14aR,16aS,Z)-2-((2,3-dihydro-1H-pyrano[2,3-c]isoquinolin-6-yl)oxy)-7-ethyl-9-methyl-14a-(((1-methylcyclopropyl)sulfonyl)carbamoyl)-5,16-dioxo-2,3,5,6,7,9,10,11,13a,14,14a,15,16,16a-tetradecahydro-1H-cyclopropa[i]pyrrolo[1,2-e][1,5,8]oxadiazacyclopentadecin-6-yl)carbamate] | 0.1 to 0.5 | 0.51 to 1 | – | – |
| COc1ccc2c(O[C@@H]3C[C@H]4C(=O)N[C@]5(C(=O)NS(=O)(=O)C6(C)CC6)C[C@H]5/C=C\CC[C@@H](C)O[C@@H](C)[C@H](NC(=O)OC(C)(C)C(C)(F)F)C(=O)N4C3)nc3c(c2c1)CCCO3 [Compound 2309, 3,3-difluoro-2-methylbutan-2-yl ((2R,6S,7S,9R,13aS,14aR,16aS,Z)-2-((9-methoxy-2,3-dihydro-1H-pyrano[2,3-c]isoquinolin-6-yl)oxy)-7,9-dimethyl-14a-(((1-methylcyclopropyl)sulfonyl)carbamoyl)-5,16-dioxo-2,3,5,6,7,9,10,11,13a,14,14a,15,16,16a-tetradecahydro-1H-cyclopropa[i]pyrrolo[1,2-e][1,5,8]oxadiazacyclopentadecin-6-yl)carbamate] | 0.51 to 1 | 0.51 to 1 | – | – |
| COc1cc(F)cc2c(O[C@@H]3C[C@H]4C(=O)N[C@]5(C(=O)NS(=O)(=O)C6(CF)CC6)C[C@H]5/C=C\CC[C@@H](C)O[C@@H](C)[C@H](NC(=O)OC(C)(C)C(F)(F)F)C(=O)N4C3)nccc12 [Compound 2020, 1,1,1-trifluoro-2-methylpropan-2-yl ((2R,6S,7S,9R,13aS,14aR,16aS,Z)-2-((7-fluoro-5-methoxyisoquinolin-1-yl)oxy)-14a-(((1-(fluoromethyl)cyclopropyl)sulfonyl)carbamoyl)-7,9-dimethyl-5,16-dioxo-2,3,5,6,7,9,10,11,13a,14,14a,15,16,16a-tetradecahydro-1H-cyclopropa[i]pyrrolo[1,2-e][1,5,8]oxadiazacyclopentadecin-6-yl)carbamate] | 0.51 to 1 | 1.01 to 5 | – | – |
| CC[C@@H]1O[C@H](C)CC/C=C\[C@@H]2C[C@@]2(C(=O)NS(=O)(=O)C2CC2)NC(=O)[C@@H]2C[C@@H](Oc3nc(OC)cc4cc(OC)ccc34)CN2C(=O)[C@H]1NC(=O)OC(C)(C)C(F)(F)F [Compound 1008, 1,1,1-trifluoro-2-methylpropan-2-yl ((2R,6S,7S,9R,13aS,14aR,16aS,Z)-14a-((cyclopropylsulfonyl)carbamoyl)-2-((3,6-dimethoxyisoquinolin-1-yl)oxy)-7-ethyl-9-methyl-5,16-dioxo-2,3,5,6,7,9,10,11,13a,14,14a,15,16,16a-tetradecahydro-1H-cyclopropa[i]pyrrolo[1,2-e][1,5,8]oxadiazacyclopentadecin-6-yl)carbamate] | 0.1 to 0.5 | 0.1 to 0.5 | 0.28 | 0.41 |
| CC[C@@H]1O[C@H](C)CC/C=C\[C@@H]2C[C@@]2(C(=O)NS(=O)(=O)C2(C)CC2)NC(=O)[C@@H]2C[C@@H](Oc3nc(OC)cc4cc(OC)ccc34)CN2C(=O)[C@H]1NC(=O)OC(C)(C)C(F)(F)F [Compound 1002, 1,1,1-trifluoro-2-methylpropan-2-yl ((2R,6S,7S,9R,13aS,14aR,16aS,Z)-2-((3,6-dimethoxyisoquinolin-1-yl)oxy)-7-ethyl-9-methyl-14a-(((1-methylcyclopropyl)sulfonyl)carbamoyl)-5,16-dioxo-2,3,5,6,7,9,10,11,13a,14,14a,15,16,16a-tetradecahydro-1H-cyclopropa[i]pyrrolo[1,2-e][1,5,8]oxadiazacyclopentadecin-6-yl)carbamate] | 0.1 to 0.5 | 0.51 to 1 | – | – |
| CC[C@@H]1OCCC/C=C\[C@@H]2C[C@@]2(C(=O)NS(=O)(=O)C2(C)CC2)NC(=O)[C@@H]2C[C@@H](Oc3nc(OC)cc4cc(OC)ccc34)CN2C(=O)[C@H]1NC(=O)OC(C)(C)C(F)(F)F [Compound 1010, 1,1,1-trifluoro-2-methylpropan-2-yl ((2R,6S,7S,13aS,14aR,16aS,Z)-2-((3,6-dimethoxyisoquinolin-1-yl)oxy)-7-ethyl-14a-(((1-methylcyclopropyl)sulfonyl)carbamoyl)-5,16-dioxo-2,3,5,6,7,9,10,11,13a,14,14a,15,16,16a-tetradecahydro-1H-cyclopropa[i]pyrrolo[1,2-e][1,5,8]oxadiazacyclopentadecin-6-yl)carbamate] | 1.01 to 5 | 0.51 to 1 | – | – |
| COc1ccc2c(O[C@@H]3C[C@H]4C(=O)N[C@]5(C(=O)NS(=O)(=O)C6CC6)C[C@H]5/C=C\CO[C@@H](C)C[C@@H](C)[C@H](NC(=O)OC(C)(C)C)C(=O)N4C3)nccc2c1 [Compound 2603, tert-butyl ((2R,6S,7R,9S,13a5,14aR,16aS,Z)-14a-((cyclopropylsulfonyl)carbamoyl)-2-((6-methoxyisoquinolin-1-yl)oxy)-7,9-dimethyl-5,16-dioxo-2,3,5,6,7,8,9,11,13a,14,14a,15,16,16a-tetradecahydro-1H-cyclopropa[e]pyrrolo[2,1-i][1,7,10]oxadiazacyclopentadecin-6-yl)carbamate] | 5.01 to 35 | 5.01 to 35 | 6.64 | 9.08 |
| CC[C@@H]1O[C@H](C)CC/C=C\[C@@H]2C[C@@]2(C(=O)NS(=O)(=O)C2(C)CC2)NC(=O)[C@@H]2C[C@@H](Oc3nc(-c4ccc(OC(C)C)cn4)cc4cc(OC)ccc34)CN2C(=O)[C@H]1NC(=O)OC(C)(C)C(F)(F)F [Compound 2612, 1,1,1-trifluoro-2-methylpropan-2-yl ((2R,6S,7S,9R,13aS,14aR,16aS,Z)-7-ethyl-2-((3-(5-isopropoxypyridin-2-yl)-6-methoxyisoquinolin-1-yl)oxy)-9-methyl-14a-(((1-methylcyclopropyl)sulfonyl)carbamoyl)-5,16-dioxo-2,3,5,6,7,9,10,11,13a,14,14a,15,16,16a-tetradecahydro-1H-cyclopropa[i]pyrrolo[1,2-e][1,5,8]oxadiazacyclopentadecin-6-yl)carbamate] | 1.01 to 5 | 1.01 to 5 | – | – |
| CC[C@@H]1O[C@H](C)CC/C=C\[C@@H]2C[C@@]2(C(=O)NS(=O)(=O)C2(C)CC2)NC(=O)[C@@H]2C[C@@H](Oc3ncc(OC)c4ccc(F)cc34)CN2C(=O)[C@H]1NC(=O)OC(C)(C)C(C)(F)F [Compound 2605, 3,3-difluoro-2-methylbutan-2-yl ((2R,6S,7S,9R,13aS,14aR,16aS,Z)-7-ethyl-2-((7-fluoro-4-methoxyisoquinolin-1-yl)oxy)-9-methyl-14a-(((1-methylcyclopropyl)sulfonyl)carbamoyl)-5,16-dioxo-2,3,5,6,7,9,10,11,13a,14,14a,15,16,16a-tetradecahydro-1H-cyclopropa[i]pyrrolo[1,2-e][1,5,8]oxadiazacyclopentadecin-6-yl)carbamate] | 0.1 to 0.5 | 0.51 to 1 | – | – |
| CC[C@@H]1O[C@H](C)CC/C=C\[C@@H]2C[C@@]2(C(=O)NS(=O)(=O)C2(C)CC2)NC(=O)[C@@H]2C[C@@H](Oc3ncc(OC)c4ccccc34)CN2C(=O)[C@H]1NC(=O)OC(C)(C)C(F)F [Compound 2618, 1,1-difluoro-2-methylpropan-2-yl ((2R,6S,7S,9R,13aS,14aR,16aS,Z)-7-ethyl-2-((4-methoxyisoquinolin-1-yl)oxy)-9-methyl-14a-(((1-methylcyclopropyl)sulfonyl)carbamoyl)-5,16-dioxo-2,3,5,6,7,9,10,11,13a,14,14a,15,16,16a-tetradecahydro-1H-cyclopropa[i]pyrrolo[1,2-e][1,5,8]oxadiazacyclopentadecin-6-yl)carbamate] | 0.1 to 0.5 | 0.1 to 0.5 | – | – |
| CCOc1cnc(O[C@@H]2C[C@H]3C(=O)N[C@]4(C(=O)NS(=O)(=O)C5(C)CC5)C[C@H]4/C=C\CC[C@@H](C)O[C@@H](C)[C@H](NC(=O)OC(C)(C)C(F)(F)F)C(=O)N3C2)c2ccccc12 [Compound 2004, 1,1,1-trifluoro-2-methylpropan-2-yl ((2R,6S,7S,9R,13aS,14aR,16aS,Z)-2-((4-ethoxyisoquinolin-1-yl)oxy)-7,9-dimethyl-14a-(((1-methylcyclopropyl)sulfonyl)carbamoyl)-5,16-dioxo-2,3,5,6,7,9,10,11,13a,14,14a,15,16,16a-tetradecahydro-1H-cyclopropa[i]pyrrolo[1,2-e][1,5,8]oxadiazacyclopentadecin-6-yl)carbamate] | 0.1 to 0.5 | 0.51 to 1 | – | – |
